Test results: US8841087B2 (priority 2008, dated 2014)

System: clinical strains of Mycobacterium tuberculosis
Assay: Reference phenotypic test of antibiotic sensitivity in solid medium
Type: cell-based
Details: six clinical strains

`CC[C@@H](CO)NCCN[C@@H](CC)CO` [ethambutol] was tested, and the “sensitivity at critical concentration” value (ethambutol, 5 μg/ml) was “sensitive”.

`NNC(=O)c1ccncc1` [isoniazid] was tested, and the “sensitivity at critical concentration” value (isoniazid, 0.2 μg/ml) was “sensitive”.

In the case of `[H]/N=C(/N)N[C@H]1[C@H](O)[C@@H](O)[C@H](O[C@@H]2O[C@@H](C)[C@](O)(C=O)[C@H]2O[C@@H]2O[C@@H](CO)[C@H](O)[C@@H](O)[C@@H]2NC)[C@@H](N/C(N)=N\[H])[C@@H]1O` [streptomycin], the “sensitivity at critical concentration” value (streptomycin, 5 μg/ml) is reported as “sensitive”.
